Values of other authors in US20230330185A1, “METHODS AND COMPOSITIONS FOR TRANSDUCING HEMATOPOIETIC STEM AND PROGENITOR CELLS IN VIVO” (Magenta Therapeutics, Inc., priority 2020, published 2023).

Tested on: hematopoietic stem and progenitor cells
Settings: as described in U.S. Pat. No. 6,080,398 and 6,447,766; cited from earlier work

Substance	potency to induce hematopoietic stem and progenitor cell mobilization, relative to parent peptide
Gro-β T N65D: variant of Gro-β T with aspartic acid in place of asparagine at position 65, SEQ ID NO: 4	substantially greater than that of Gro-β T
Gro-β T: truncated Gro-β with deletion of the first four N-terminal amino acids, SEQ ID NO: 2; CXCR2 agonist	superior to that of Gro-β by multiple orders of magnitude
